Results as given in patent US20240246918A1, “COMPOUNDS AND COMPOSITIONS AS EIF4E INHIBITORS AND THE USES THEREOF” (Ribometrix, Inc., priority 2022, published 2024).
Read-outs that look alike come from different tables or passages of the source.

What was measured:
human eIF4E protein = molecular target: T1, human eIF4E protein (Homo sapiens, UniProt P06730); assay: Biochemical competitive binding assay (TR-FRET competition, EDA-m7GDP-ATTO-647N probe); conditions: read-out: hEIF4E TR-FRET IC50
T1 construct: purchased Novus NBP-45314
T1 sequence (P06730 whole entry): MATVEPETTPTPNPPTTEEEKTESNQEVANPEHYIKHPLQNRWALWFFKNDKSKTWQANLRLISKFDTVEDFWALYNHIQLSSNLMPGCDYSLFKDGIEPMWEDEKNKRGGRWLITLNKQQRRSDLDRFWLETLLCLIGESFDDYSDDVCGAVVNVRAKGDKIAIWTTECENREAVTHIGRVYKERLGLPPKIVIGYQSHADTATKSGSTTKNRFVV
Outline: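 IC50 values come from 4-parameter fits of the normalized 665/620 nm TR-FRET ratio. Compound was first incubated 15 min with 4 nM recombinant His-eIF4E bound to 2.5 nM Eu-anti-His antibody, then 15 min with 5 nM m7GDP-ATTO-647N tracer, in pH 7.5 HEPES buffer with 100 mM KCl, Tween-20 and BSA.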

[1] = test system: cap-dependent translation in Flp-In-293 reporter cells; assay: Cellular cap-dependent translation inhibition assay (dual luciferase assay, DLA; Fluc/Rluc ratio, 24 hours); assay type: cell-based
[2] = test system: COLO 205 colorectal tumor cells; assay: Tumor cell viability inhibition assay (CellTiter-Glo 2.0, 72 hours); assay type: cell-based; conditions: COLO 205 cell viability
Outline: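 IC50 derived by 4-parameter fitting after normalizing luminescence to DMSO and max-inhibition wells. Compounds tested as 11 concentrations in 4-fold steps on COLO 205 cells seeded at 1500 per well in RPMI-1640/10% FBS; ATP content measured with CellTiter-Glo 2.0 after 72 h.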

[3] = Homo sapiens, Flp-In-293, 24 h, dual luciferase assay, Flp-In-293 reporter cells, 24 hours, Fluc/Rluc ratio, read-out: DLA 205 IC50
[4] = dual luciferase assay, Flp-In-293 reporter cells, 24 hours, Fluc/Rluc ratio, read-out: DLA 205 IC50

| SMILES | IC50 (human eIF4E protein) [µM] | IC50 ([2]; Homo sapiens, COLO 205, 72 h) [µM] | IC50 [2] [µM] | IC50 [1, 3] [µM] | IC50 [1, 4] [µM] | IC50 ([1]; Homo sapiens, Flp-In-293, 24 h, read-out: DLA 205 IC50, dual luciferase assay, Flp-In-293 reporter cells, 24 hours, Fluc/Rluc ratio) [µM] | IC50 ([2]; Homo sapiens) [µM] | IC50 ([1]; read-out: DLA 205 IC50, dual luciferase assay, Flp-In-293 reporter cells, 24 hours, Fluc/Rluc ratio) [µM] |
| --- | --- | --- | --- | --- | --- | --- | --- | --- |
| Cc1cc(-c2cc(Cl)ccc2OCCn2c(C)nc3c(c2=O)CC(N(C)Cc2ccncc2)CC3)c2sccc2n1 (stereo not drawn) [Compound 75] | 0.5 to 5 | 5 to 20 | – | > 5 | – | – | – | – |
| Cc1cc(-c2cc(Cl)ccc2OCCn2c(C)nc3c(c2=O)CC(N(C)C2CC2)CC3)c2c(n1)c(C(=O)NS(C)(=O)=O)cn2C (stereo not drawn) [Compound 272] | 0.5 to 5 | > 20 | – | > 5 | – | – | – | – |
| Cc1cc(-c2cc(Cl)ccc2OCCn2c(C)nc3c(c2=O)CC(N2CCN(C)CC2)CC3)c2scc(C(=O)O)c2n1 (stereo not drawn) [Compound 10] | < 0.1 | – | – | – | – | 1 to 5 | 5 to 20 | – |
| Cc1nc2c(c(=O)n1CC#Cc1ccc(Cl)cc1-c1ccnc3c(C(=O)NS(C)(=O)=O)csc13)CC(N(C)C1CC(F)(F)C1)CC2 (single isomer, unassigned) [Compound 334] | < 0.1 | – | < 5 | – | < 1 | – | – | – |
| Cc1cc(-c2cc(Cl)ccc2OCCn2c(C)nc3c(c2=O)CC(N(C)CC2CC(F)(F)C2)CC3)c2scc(C(=O)O)c2n1 (stereo not drawn) [Compound 96] | < 0.1 | < 5 | – | < 1 | – | – | – | – |
| Cc1cc(-c2cc(Cl)ccc2OCCn2c(C)nc3c(c2=O)CC(N2CC4CN(C)CC4C2)CC3)c2scc(C(=O)O)c2n1 (stereo not drawn) [Compound 27] | < 0.1 | > 20 | – | > 5 | – | – | – | – |
| Cc1nc2c(c(=O)n1CC#Cc1ccc(Cl)cc1-c1ccnc3c(C(=O)O)csc13)CC(N1CCCCC1)CC2 (stereo not drawn) [Compound 357] | < 0.1 | < 5 | – | < 1 | – | – | – | – |
| Cc1cc(-c2cc(Cl)ccc2OCCn2c(C)nc3c(c2=O)CC(N(C)C2CCN(CC(F)(F)F)CC2)CC3)c2scc(C(=O)O)c2n1 (stereo not drawn) [Compound 276] | < 0.1 | < 5 | – | < 1 | – | – | – | – |
| Cc1cc(-c2cc(Cl)ccc2OCCn2c(C)nc3c(c2=O)CC(N2CCCCC2)CC3)c2scc(C(=O)O)c2n1 (single isomer, unassigned) [Compound 249] | < 0.1 | 5 to 20 | – | < 1 | – | – | – | – |
| COC1CCc2nc(C)n(CCOc3ccc(Cl)cc3-c3cc(C)nc4c(C(=O)O)csc34)c(=O)c2C1 (single isomer, unassigned) [Compound 5] | 0.1 to 0.5 | – | 5 to 20 | – | – | – | – | > 5 |
| Cc1cc(-c2cc(Cl)ccc2OCCn2c(C)nc3c(c2=O)CC(N(C)CC2COC2)CC3)c2scc(C(=O)O)c2n1 (stereo not drawn) [Compound 29] | < 0.1 | < 5 | – | < 1 | – | – | – | – |
| Cc1nc2c(c(=O)n1CC#Cc1ccc(Cl)cc1-c1ccnc3c(C(=O)NS(C)(=O)=O)csc13)CC(N1CC(F)(F)C1)CC2 (single isomer, unassigned) [Compound 332] | 0.1 to 0.5 | – | 5 to 20 | – | > 5 | – | – | – |
| Cc1cc(-c2cc(Cl)ccc2OCCn2c(C)nc3c(c2=O)CC(N2CCC(F)(F)CC2)CC3)c2scc(C(=O)NS(C)(=O)=O)c2n1 (single isomer, unassigned) [Compound 254] | < 0.1 | – | < 5 | – | < 1 | – | – | – |
| Cc1cc(-c2cc(Cl)ccc2OCCn2c(C)nc3c(c2=O)CC(N(C)C(=O)C2CN(C)C2)CC3)c2scc(C(=O)O)c2n1 (stereo not drawn) [Compound 73] | < 0.1 | > 20 | – | > 5 | – | – | – | – |
| Cc1cc(-c2cc(Cl)ccc2OCCn2c(C)nc3c(c2=O)CC(N(C)CC2(C)COC2)CC3)c2scc(C(=O)O)c2n1 (single isomer, unassigned) [Compound 344] | < 0.1 | < 5 | – | < 1 | – | – | – | – |
| Cc1nc2c(c(=O)n1CCOc1ccc(Cl)cc1-c1ccnn3c(C(=O)O)ccc13)CC(N(C)C)CC2 (stereo not drawn) [Compound 30, 4-[5-chloranyl-2-[2-[6-[di(methyl)amino]-2-methyl-4-oxidanylidene-5,6,7,8-tetrahydroquinazolin-3-yl]ethoxy]phenyl]pyrrolo[1,2-b]pyridazine-7-carboxylic acid] | < 0.1 | > 20 | – | 1 to 5 | – | – | – | – |
| Cc1nc2c(c(=O)n1CC#Cc1ccc(Cl)cc1-c1ccnc3c(C(=O)O)csc13)CC(N1CC(F)(F)C1)CC2 (stereo not drawn) [Compound 85] | 0.1 to 0.5 | < 5 | – | 1 to 5 | – | – | – | – |

More lines, main results first:

| IC50 (human eIF4E protein) [µM] | IC50 ([2]; Homo sapiens, COLO 205, 72 h) [µM] | IC50 [2] [µM] | SMILES | IC50 [1, 3] [µM] | IC50 [1, 4] [µM] | IC50 ([1]; Homo sapiens, Flp-In-293, 24 h, read-out: DLA 205 IC50, dual luciferase assay, Flp-In-293 reporter cells, 24 hours, Fluc/Rluc ratio) [µM] | IC50 ([2]; Homo sapiens) [µM] | IC50 ([1]; read-out: DLA 205 IC50, dual luciferase assay, Flp-In-293 reporter cells, 24 hours, Fluc/Rluc ratio) [µM] |
| --- | --- | --- | --- | --- | --- | --- | --- | --- |
| < 0.1 | > 20 | – | Cc1cc(-c2cc(Cl)ccc2OCCn2c(C)nc3c(c2=O)CC(N(C)Cc2cc[nH]c(=O)c2)CC3)c2scc(C(=O)O)c2n1 (single isomer, unassigned) [Compound 246] | > 5 | – | – | – | – |
| < 0.1 | – | < 5 | Cc1cc(-c2cc(Cl)ccc2OCCn2c(C)nc3c(c2=O)CC(N2CC(C(F)(F)F)C2)CC3)c2scc(C(=O)NS(C)(=O)=O)c2n1 (single isomer, unassigned) [Compound 322] | – | < 1 | – | – | – |
| < 0.1 | < 5 | – | Cc1cc(-c2cc(Cl)ccc2OCCn2c(C)nc3c(c2=O)CC(N2CCC(F)(F)C2)CC3)c2scc(C(=O)O)c2n1 (stereo not drawn) [Compound 53] | < 1 | – | – | – | – |
| < 0.1 | < 5 | – | Cc1cc(-c2cc(Cl)ccc2OCCn2c(C)nc3c(c2=O)C[C@@H](N2CC[C@@H](F)C2)CC3)c2scc(C(=O)NS(C)(=O)=O)c2n1 (single isomer, unassigned) [Compound 312] | < 1 | – | – | – | – |
| < 0.1 | < 5 | – | Cc1cc(-c2cc(Cl)ccc2OCCn2c(C)nc3c(c2=O)CC(N(C)C2CC2)CC3)c2scc(C(=O)NS(=O)(=O)c3ccccn3)c2n1 (single isomer, unassigned) [Compound 286] | < 1 | – | – | – | – |
| < 0.1 | < 5 | – | Cc1cc(-c2cc(Cl)ccc2OCCn2c(C)nc3c(c2=O)CC(N2CC4COCC4C2)CC3)c2scc(C(=O)NS(C)(=O)=O)c2n1 (single isomer, unassigned) [Compound 359] | < 1 | – | – | – | – |
| < 0.1 | – | > 20 | Cc1cc(-c2cc(Cl)ccc2OCCn2c(C)nc3c(c2=O)CC(N(C)Cc2cc[nH]c(=O)c2)CC3)c2scc(C(=O)O)c2n1 (single isomer, unassigned) [Compound 247] | – | > 5 | – | – | – |
| < 0.1 | < 5 | – | Cc1nc2c(c(=O)n1CC#Cc1ccc(Cl)cc1-c1ccnc3c(C(=O)O)csc13)CC(N(C)C1CCN(CC(F)(F)F)CC1)CC2 (stereo not drawn) [Compound 275] | < 1 | – | – | – | – |
| < 0.1 | 5 to 20 | – | Cc1nc2c(c(=O)n1CC#Cc1ccc(Cl)cc1-c1ccnc3c(C(=O)O)csc13)CC(N1CC(F)C1)CC2 (stereo not drawn) [Compound 355] | < 1 | – | – | – | – |
| < 0.1 | < 5 | – | Cc1nc2c(c(=O)n1CC#Cc1ccc(Cl)cc1-c1ccnc3c(C(=O)O)csc13)C[C@@H](N1CC[C@H](F)C1)CC2 (single isomer, unassigned) [Compound 293] | < 1 | – | – | – | – |
| < 0.1 | < 5 | – | Cc1cc(-c2cc(Cl)ccc2OCCn2c(C)nc3c(c2=O)CC(N(C)CCOC(F)(F)F)CC3)c2scc(C(=O)O)c2n1 (stereo not drawn) [Compound 41] | < 1 | – | – | – | – |
| < 0.1 | < 5 | – | Cc1cc(-c2cc(Cl)ccc2OCCn2c(C)nc3c(c2=O)CC(N(C)C2CC(F)(F)C2)CC3)c2scc(C(=O)O)c2n1 (stereo not drawn) [Compound 40, 7-[2-[2-[6-[[3,3-bis(fluorenyl)cyclobutyl]-methyl-amino]-2-methyl-4-oxidanylidene-5,6,7,8-tetrahydroquinazolin-3-yl]ethoxy]-5-chloranyl-phenyl]-5-methyl-thieno[3,2-b]pyridine-3-carboxylic acid; 2,2,2-tris(fluorenyl)acetic acid] | < 1 | – | – | – | – |
